Measurements from the supplement of paper PMC10307832.

What was measured:
Assay in all cases: relative viability (nuclei count vs DMSO), 5 days (fraction); higher = more cells survive
CAL-12T = tested on: CAL-12T
Summary of the method: (§1)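 Lung cancer cell lines in 1536-well plates were dosed by pin tool the day after seeding, either with one drug alone or with a fixed anchor-drug dose plus five library-drug doses (not always all listed) in √10 steps. After 5 days, cells were fixed and their nuclei stained in one step (final 0.05% Triton X-100, 1% formaldehyde, 1 ug/ml Hoechst), then counted on 4× images. Relative viability is the nuclei count in treated wells divided by that in vehicle wells. Values are medians of duplicate plates.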

EKVX = tested on: EKVX
Summary of the method: as §1

H3255 = tested on: H3255
Summary of the method: as §1

HCC-15 = tested on: HCC-15
Summary of the method: as §1

HCC-827 = tested on: HCC-827
Summary of the method: as §1

LCLC-97TM1 = tested on: LCLC-97TM1
Summary of the method: as §1

LK-2 = tested on: LK-2
Summary of the method: as §1

NCI-H1355 = tested on: NCI-H1355
Summary of the method: as §1

NCI-H1563 = tested on: NCI-H1563
Summary of the method: as §1

NCI-H1734 = tested on: NCI-H1734
Summary of the method: as §1

NCI-H1755 = settings: first compound 0.0002 µM
Summary of the method: as §1

CC(=O)O[C@@]12CO[C@@H]1C[C@H](O)[C@@]1(C)C(=O)[C@H](O)C3=C(C)[C@@H](OC(=O)[C@H](O)[C@@H](NC(=O)OC(C)(C)C)c4ccccc4)C[C@@](O)([C@@H](OC(=O)c4ccccc4)[C@H]21)C3(C)C [Docetaxel] + Cc1nc(NC(=O)N2CCC[C@H]2C(N)=O)sc1-c1ccnc(C(C)(C)C(F)(F)F)c1 [Alpelisib] (partner 2 µM)
relative viability (CAL-12T; first compound 0.0002 µM): 1.06 | relative viability (CAL-12T; first compound 0.000632 µM): 0.699 | relative viability (CAL-12T; first compound 0.002 µM): 0.201 | relative viability (CAL-12T; first compound 0.02 µM): 0.154 | relative viability (EKVX; first compound 0.0002 µM): 0.884 | relative viability (EKVX; first compound 0.000632 µM): 0.853 | relative viability (EKVX; first compound 0.002 µM): 0.435 | relative viability (EKVX; first compound 0.006325 µM): 0.25 | relative viability (EKVX; first compound 0.02 µM): 0.146 | relative viability (H3255; first compound 0.0002 µM): 0.572 | relative viability (H3255; first compound 0.000632 µM): 0.722 | relative viability (H3255; first compound 0.002 µM): 0.348 | relative viability (H3255; first compound 0.006325 µM): 0.251 | relative viability (HCC-15; first compound 0.0002 µM): 0.805 | relative viability (HCC-15; first compound 0.000632 µM): 0.467 | relative viability (HCC-15; first compound 0.002 µM): 0.196 | relative viability (HCC-15; first compound 0.006325 µM): 0.208 | relative viability (HCC-15; first compound 0.02 µM): 0.118 | relative viability (HCC-827; first compound 0.0002 µM): 0.981 | relative viability (HCC-827; first compound 0.000632 µM): 0.992 | relative viability (HCC-827; first compound 0.002 µM): 0.706 | relative viability (HCC-827; first compound 0.006325 µM): 0.288 | relative viability (HCC-827; first compound 0.02 µM): 0.282 | relative viability (LCLC-97TM1; first compound 0.000632 µM): 0.222 | relative viability (LCLC-97TM1; first compound 0.002 µM): 0.121 | relative viability (LCLC-97TM1; first compound 0.006325 µM): 0.154 | relative viability (LCLC-97TM1; first compound 0.02 µM): 0.0979 | relative viability (LK-2; first compound 0.0002 µM): 1.03 | relative viability (LK-2; first compound 0.000632 µM): 0.685 | relative viability (LK-2; first compound 0.002 µM): 0.262 | relative viability (LK-2; first compound 0.006325 µM): 0.244 | relative viability (LK-2; first compound 0.02 µM): 0.231 | relative viability (NCI-H1355; first compound 0.0002 µM): 0.726 | relative viability (NCI-H1355; first compound 0.000632 µM): 0.768 | relative viability (NCI-H1355; first compound 0.002 µM): 0.435 | relative viability (NCI-H1355; first compound 0.006325 µM): 0.313 | relative viability (NCI-H1355; first compound 0.02 µM): 0.189 | relative viability (NCI-H1563; first compound 0.0002 µM): 0.879 | relative viability (NCI-H1563; first compound 0.000632 µM): 0.926 | relative viability (NCI-H1563; first compound 0.002 µM): 0.809 | relative viability (NCI-H1563; first compound 0.006325 µM): 0.807 | relative viability (NCI-H1563; first compound 0.02 µM): 0.55 | relative viability (NCI-H1734; first compound 0.0002 µM): 0.614 | relative viability (NCI-H1734; first compound 0.000632 µM): 0.67 | relative viability (NCI-H1734; first compound 0.002 µM): 0.406 | relative viability (NCI-H1734; first compound 0.006325 µM): 0.355 | relative viability (NCI-H1734; first compound 0.02 µM): 0.267 | relative viability (NCI-H1755): 0.871
